Measurements: ChEMBL document CHEMBL3813616, “Discovery of novel 7-azaindoles as PDK1 inhibitors” (Bioorg Med Chem Lett, 2016)
≈ marks a conversion by molar mass, not a printed value.

Experiments:
[1] = target: T1, Phosphatidylinositol 4,5-bisphosphate 3-kinase catalytic subunit delta isoform (Homo sapiens, UniProt O00329); assay: Inhibition of PI3K delta (unknown origin)
T1 sequence (O00329 whole entry): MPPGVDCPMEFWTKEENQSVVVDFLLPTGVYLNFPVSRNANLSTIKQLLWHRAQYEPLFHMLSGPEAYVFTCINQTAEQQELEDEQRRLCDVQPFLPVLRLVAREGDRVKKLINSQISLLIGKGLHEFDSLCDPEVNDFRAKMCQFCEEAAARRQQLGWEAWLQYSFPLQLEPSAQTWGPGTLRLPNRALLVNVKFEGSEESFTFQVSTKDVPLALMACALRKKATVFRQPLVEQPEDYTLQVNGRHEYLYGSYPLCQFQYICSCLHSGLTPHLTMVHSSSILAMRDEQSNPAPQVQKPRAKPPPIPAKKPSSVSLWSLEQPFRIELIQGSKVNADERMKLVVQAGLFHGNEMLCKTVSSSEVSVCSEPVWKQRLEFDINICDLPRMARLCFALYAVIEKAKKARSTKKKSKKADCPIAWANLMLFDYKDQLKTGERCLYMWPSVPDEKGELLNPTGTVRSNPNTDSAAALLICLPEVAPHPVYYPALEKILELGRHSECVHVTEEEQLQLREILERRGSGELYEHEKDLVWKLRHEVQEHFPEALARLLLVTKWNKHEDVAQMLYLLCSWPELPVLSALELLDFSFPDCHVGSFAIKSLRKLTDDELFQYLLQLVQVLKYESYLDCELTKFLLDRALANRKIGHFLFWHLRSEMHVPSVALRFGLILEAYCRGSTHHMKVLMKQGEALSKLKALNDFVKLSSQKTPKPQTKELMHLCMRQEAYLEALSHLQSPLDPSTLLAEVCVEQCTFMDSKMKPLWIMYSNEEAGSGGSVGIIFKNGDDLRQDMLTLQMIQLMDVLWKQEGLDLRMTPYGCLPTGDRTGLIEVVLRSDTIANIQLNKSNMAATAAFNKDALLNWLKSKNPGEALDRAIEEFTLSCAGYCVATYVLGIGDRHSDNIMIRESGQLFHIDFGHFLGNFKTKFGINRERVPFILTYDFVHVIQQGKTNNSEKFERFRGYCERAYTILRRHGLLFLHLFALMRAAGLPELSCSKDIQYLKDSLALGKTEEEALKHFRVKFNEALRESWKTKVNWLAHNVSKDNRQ

[2] = target: T2, 3-phosphoinositide-dependent protein kinase 1 (Homo sapiens, UniProt O15530); assay: Inhibition of PDK1 in human PC3 cells assessed as reduction in AKT Thr308 phosphorylation after 45 mins; format: cell-based, PC-3
T2 sequence (O15530 whole entry): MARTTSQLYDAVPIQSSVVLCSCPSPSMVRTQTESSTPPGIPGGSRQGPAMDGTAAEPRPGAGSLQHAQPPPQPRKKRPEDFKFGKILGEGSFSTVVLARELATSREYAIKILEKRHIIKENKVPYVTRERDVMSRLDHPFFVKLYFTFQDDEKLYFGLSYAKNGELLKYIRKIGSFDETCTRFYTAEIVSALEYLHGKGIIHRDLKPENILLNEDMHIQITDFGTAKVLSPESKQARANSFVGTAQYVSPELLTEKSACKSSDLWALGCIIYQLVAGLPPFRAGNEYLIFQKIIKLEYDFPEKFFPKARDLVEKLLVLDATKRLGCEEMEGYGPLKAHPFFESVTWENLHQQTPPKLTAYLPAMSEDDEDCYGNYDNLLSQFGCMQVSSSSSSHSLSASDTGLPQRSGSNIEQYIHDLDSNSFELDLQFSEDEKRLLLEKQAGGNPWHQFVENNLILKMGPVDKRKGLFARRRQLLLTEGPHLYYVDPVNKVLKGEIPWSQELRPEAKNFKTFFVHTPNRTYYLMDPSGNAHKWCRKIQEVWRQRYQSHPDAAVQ

[3] = target: T3, Phosphatidylinositol 4,5-bisphosphate 3-kinase catalytic subunit alpha isoform (Homo sapiens, UniProt P42336); assay: Inhibition of PI3K alpha (unknown origin)
T3 sequence (P42336 whole entry, canonical isoform): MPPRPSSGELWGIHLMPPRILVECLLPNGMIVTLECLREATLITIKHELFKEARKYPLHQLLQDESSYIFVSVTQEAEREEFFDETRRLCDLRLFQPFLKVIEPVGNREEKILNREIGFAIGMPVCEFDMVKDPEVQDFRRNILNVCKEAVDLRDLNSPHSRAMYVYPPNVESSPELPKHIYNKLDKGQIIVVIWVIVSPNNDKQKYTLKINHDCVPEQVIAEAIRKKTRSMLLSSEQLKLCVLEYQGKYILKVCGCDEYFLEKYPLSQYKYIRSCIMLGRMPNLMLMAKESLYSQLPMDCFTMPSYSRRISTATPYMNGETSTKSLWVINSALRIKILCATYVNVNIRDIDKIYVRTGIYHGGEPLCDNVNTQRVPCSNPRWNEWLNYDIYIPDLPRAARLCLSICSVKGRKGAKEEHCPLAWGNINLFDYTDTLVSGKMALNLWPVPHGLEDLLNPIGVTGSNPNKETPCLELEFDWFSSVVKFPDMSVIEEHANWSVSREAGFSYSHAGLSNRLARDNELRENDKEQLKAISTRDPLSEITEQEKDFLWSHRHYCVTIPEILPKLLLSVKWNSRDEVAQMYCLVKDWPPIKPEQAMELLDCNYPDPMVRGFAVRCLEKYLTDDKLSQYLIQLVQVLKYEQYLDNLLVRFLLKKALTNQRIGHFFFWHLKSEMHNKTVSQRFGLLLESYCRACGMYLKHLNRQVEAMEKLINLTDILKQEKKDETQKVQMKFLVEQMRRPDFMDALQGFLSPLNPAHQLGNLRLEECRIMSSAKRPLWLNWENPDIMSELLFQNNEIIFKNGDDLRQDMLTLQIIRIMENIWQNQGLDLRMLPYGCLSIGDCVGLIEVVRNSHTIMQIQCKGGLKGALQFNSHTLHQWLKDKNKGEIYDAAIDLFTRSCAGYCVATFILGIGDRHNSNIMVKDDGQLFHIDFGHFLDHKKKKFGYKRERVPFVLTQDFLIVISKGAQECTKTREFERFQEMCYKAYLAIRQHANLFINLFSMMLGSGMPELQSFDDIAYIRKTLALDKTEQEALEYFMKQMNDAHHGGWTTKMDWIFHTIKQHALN

[4] = target: T2, 3-phosphoinositide-dependent protein kinase 1; assay: Inhibition of human His6-tagged PDK1 using biotinylated PDKtide as substrate after 60 mins by topcount method
[5] = target: Phosphatidylinositol 4,5-bisphosphate 3-kinase catalytic subunit gamma isoform (Homo sapiens, UniProt P48736); assay: Inhibition of PI3K gamma (unknown origin)
Phosphatidylinositol 4,5-bisphosphate 3-kinase catalytic subunit gamma isoform, sequence (P48736 whole entry, canonical isoform): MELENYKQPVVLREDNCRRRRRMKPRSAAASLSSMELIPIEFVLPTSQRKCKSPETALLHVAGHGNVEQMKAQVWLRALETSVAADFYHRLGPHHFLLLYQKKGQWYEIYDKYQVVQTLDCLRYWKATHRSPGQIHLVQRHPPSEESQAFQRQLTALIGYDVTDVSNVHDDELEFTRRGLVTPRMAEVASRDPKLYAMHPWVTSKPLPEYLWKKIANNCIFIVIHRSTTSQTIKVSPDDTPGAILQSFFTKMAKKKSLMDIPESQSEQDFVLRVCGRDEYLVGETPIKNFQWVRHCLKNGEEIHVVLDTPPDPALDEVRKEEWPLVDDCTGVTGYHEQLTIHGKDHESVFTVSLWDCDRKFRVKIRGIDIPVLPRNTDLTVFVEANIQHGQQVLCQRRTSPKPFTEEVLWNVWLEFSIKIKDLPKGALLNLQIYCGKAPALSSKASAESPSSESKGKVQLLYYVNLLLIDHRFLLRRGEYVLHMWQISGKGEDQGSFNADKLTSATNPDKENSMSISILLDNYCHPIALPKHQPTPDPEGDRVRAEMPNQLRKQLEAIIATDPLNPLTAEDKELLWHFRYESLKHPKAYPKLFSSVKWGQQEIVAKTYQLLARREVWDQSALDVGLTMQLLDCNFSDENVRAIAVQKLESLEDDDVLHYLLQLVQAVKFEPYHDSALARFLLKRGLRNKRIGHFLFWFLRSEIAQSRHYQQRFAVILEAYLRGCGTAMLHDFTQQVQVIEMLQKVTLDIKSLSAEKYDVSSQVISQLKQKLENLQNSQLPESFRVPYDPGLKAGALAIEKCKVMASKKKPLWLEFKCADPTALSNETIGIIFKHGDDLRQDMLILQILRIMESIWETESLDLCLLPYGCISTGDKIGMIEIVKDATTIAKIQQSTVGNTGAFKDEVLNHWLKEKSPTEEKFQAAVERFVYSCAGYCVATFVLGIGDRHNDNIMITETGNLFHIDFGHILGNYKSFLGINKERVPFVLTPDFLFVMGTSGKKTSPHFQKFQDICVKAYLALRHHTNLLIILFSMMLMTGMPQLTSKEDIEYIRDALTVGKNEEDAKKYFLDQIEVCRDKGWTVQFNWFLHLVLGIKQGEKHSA

[6] = target: Phosphatidylinositol 4,5-bisphosphate 3-kinase catalytic subunit beta isoform (Homo sapiens, UniProt P42338); assay: Inhibition of PI3K beta (unknown origin)
Phosphatidylinositol 4,5-bisphosphate 3-kinase catalytic subunit beta isoform, sequence (P42338 whole entry, canonical isoform): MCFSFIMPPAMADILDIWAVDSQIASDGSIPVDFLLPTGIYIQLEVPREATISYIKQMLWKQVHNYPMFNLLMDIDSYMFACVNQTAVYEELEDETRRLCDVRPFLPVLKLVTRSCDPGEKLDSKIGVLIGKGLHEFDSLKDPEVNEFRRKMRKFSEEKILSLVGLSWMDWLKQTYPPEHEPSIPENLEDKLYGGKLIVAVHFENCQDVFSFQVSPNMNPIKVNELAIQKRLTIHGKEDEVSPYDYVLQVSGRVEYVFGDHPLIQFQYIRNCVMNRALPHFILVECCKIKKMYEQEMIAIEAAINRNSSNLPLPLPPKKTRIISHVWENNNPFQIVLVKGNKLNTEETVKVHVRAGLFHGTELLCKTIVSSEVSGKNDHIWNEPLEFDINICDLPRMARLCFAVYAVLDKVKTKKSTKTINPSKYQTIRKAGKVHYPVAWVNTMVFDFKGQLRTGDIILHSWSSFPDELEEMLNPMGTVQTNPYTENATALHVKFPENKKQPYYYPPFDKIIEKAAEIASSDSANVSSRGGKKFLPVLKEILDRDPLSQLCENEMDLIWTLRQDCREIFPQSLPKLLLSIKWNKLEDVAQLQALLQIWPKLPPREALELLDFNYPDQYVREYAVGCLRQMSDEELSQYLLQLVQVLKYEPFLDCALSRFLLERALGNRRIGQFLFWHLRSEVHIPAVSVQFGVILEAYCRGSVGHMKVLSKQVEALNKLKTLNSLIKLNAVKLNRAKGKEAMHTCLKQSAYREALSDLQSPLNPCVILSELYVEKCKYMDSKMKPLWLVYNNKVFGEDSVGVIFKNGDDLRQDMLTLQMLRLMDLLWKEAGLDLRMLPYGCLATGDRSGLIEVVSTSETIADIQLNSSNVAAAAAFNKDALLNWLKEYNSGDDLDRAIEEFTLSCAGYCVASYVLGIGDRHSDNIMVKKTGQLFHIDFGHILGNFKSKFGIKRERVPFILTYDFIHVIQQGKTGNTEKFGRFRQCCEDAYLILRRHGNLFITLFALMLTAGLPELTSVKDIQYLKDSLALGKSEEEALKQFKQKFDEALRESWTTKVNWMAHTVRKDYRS

[7] = Intrinsic clearance in human liver microsomes; format: ADME; settings: read-out: CLH
Homo sapiens = organism: Homo sapiens; assay: Selectivity ratio of IC50 for PI3K alpha (unknown origin) to IC50 for human His6-tagged PDK1
[8] = Efflux ratio of permeability from basolateral to apical over apical to basolateral side in human Caco2 cells; format: ADME, cell-based; settings: Caco-2
[9] = Permeability across apical to basolateral side in human Caco2 cells; format: ADME, cell-based; settings: Caco-2
[10] = Intrinsic clearance in mouse liver microsomes; format: ADME; settings: read-out: CLH
[11] = target: T2, 3-phosphoinositide-dependent protein kinase 1; assay: Inhibition of human PDK1
[12] = target: T3, Phosphatidylinositol 4,5-bisphosphate 3-kinase catalytic subunit alpha isoform; assay: Inhibition of PI3K alpha (unknown origin) at 10 uM
[13] = Solubility of the compound; format: physicochemical

Structure (SMILES) | IC50 [2] [µM] | IC50 [4] [µM] | also measured
Cc1nccc(-c2c[nH]c3ncccc23)n1 |  | > 10 | 
CCc1cc(-c2c[nH]c3ncc(-c4cnn(CCN(C)C)c4)cc23)nc(N)n1 | 14 | 0.082 | microsomal CLint [7]: < 10 µL/min/mg; Ratio IC50 (Homo sapiens): 48; IC50 [1]: > 10 µM; Ratio [8]: 2.3; IC50 [3]: 3.9 µM; Papp A→B [9]: 7.3 ×10⁻⁶ cm/s; IC50 [5]: > 10 µM; microsomal CLint [10]: 39 µL/min/mg; IC50 [6]: > 30 µM
CCc1cc(-c2c[nH]c3ncccc23)nc(N)n1 | > 30 | 1.2 | 
CCCCCc1cc(-c2c[nH]c3ncccc23)nc(N)n1 | > 30 | 2.2 | 
Nc1nccc(-c2c[nH]c3cccc(O)c23)n1 [MERIDIANIN A] |  |  | IC50 [11]: 5.4 µM
CCc1cc(-c2c[nH]c3nccc(Cl)c23)nc(N)n1 |  | > 10 | 
Nc1ncc(Br)c(-c2c[nH]c3ncccc23)n1 |  | > 10 | 
CCc1cc(-c2c[nH]c3ncc(-c4c(C)nn(C)c4C)cc23)nc(N)n1 | > 30 | 2.7 | 
NCCCCc1cc(-c2c[nH]c3ncccc23)nc(N)n1 | > 30 | 1 | 
NCCCc1cc(-c2c[nH]c3ncccc23)nc(N)n1 | > 30 | 0.39 | solubility [13]: 12 µg/mL (≈ 44.7 µM)
CCc1cc(-c2c[nH]c3ncccc23)ncn1 | > 30 | > 10 | 
CCc1cc(-c2c(C)[nH]c3ncccc23)nc(N)n1 |  | > 10 | 
CCc1cc(-c2c[nH]c3ncc(Br)cc23)nc(N)n1 | > 30 | 0.48 | 
CNc1nccc(-c2cn(CCOC)c3ncccc23)n1 |  | > 10 | 
CCCc1cc(-c2c[nH]c3ncccc23)nc(N)n1 | > 30 | 1.8 | 
CCc1cc(-c2c[nH]c3ncc(-c4cnn(CC(C)C)c4)cc23)nc(N)n1 | 9.6 | 0.11 | microsomal CLint [7]: > 55 µL/min/mg; Ratio IC50 (Homo sapiens): 42; IC50 [1]: > 10 µM; Ratio [8]: 0.6; IC50 [3]: 4.7 µM; Papp A→B [9]: 27 ×10⁻⁶ cm/s; IC50 [5]: > 10 µM; microsomal CLint [10]: 67 µL/min/mg; IC50 [6]: > 30 µM

Now from value to compound, other results behind:

IC50 [2] [µM] | IC50 [4] [µM] | Structure (SMILES) | also measured
26 | 0.26 | CCc1cc(-c2c[nH]c3ncc(-c4ccn[nH]4)cc23)nc(N)n1 | IC50 [1]: > 10 µM; IC50 [3]: > 10 µM; IC50 [5]: > 10 µM; IC50 [6]: > 30 µM
28 | 0.12 | CCc1cc(-c2c[nH]c3ncc(-c4ccco4)cc23)nc(N)n1 | IC50 [1]: > 10 µM; IC50 [3]: > 10 µM; IC50 [5]: > 10 µM
> 30 | 0.5 | CCc1cc(-c2c[nH]c3ncc(-c4cccnc4)cc23)nc(N)n1 | 
> 30 | 3.5 | CCc1cc(-c2c[nH]c3ncc(-c4ccccc4)cc23)nc(N)n1 | 
11 | 0.085 | CCc1cc(-c2c[nH]c3ncc(-c4cnn(C)c4)cc23)nc(N)n1 | microsomal CLint [7]: > 55 µL/min/mg; IC50 [1]: > 10 µM; inhibition [12]: 78%; Ratio [8]: 7.9; Papp A→B [9]: 5.4 ×10⁻⁶ cm/s; IC50 [5]: > 10 µM; microsomal CLint [10]: 71 µL/min/mg
 | 1.1 | Nc1ncc(-c2ccccc2)cc1-c1nc2ccccc2[nH]1 | 
> 30 | 2.4 | CCc1cc(-c2c[nH]c3ncc(-c4ccnn4C)cc23)nc(N)n1 | 
 | 12 | Nc1nccc(-c2c[nH]c3ccc(Br)cc23)n1 [MERIDIANIN C] | 
 | 93 | COc1ccc2[nH]c(-c3cc[nH]n3)nc2c1 | 
5.4 | 0.013 | CCc1cc(-c2c[nH]c3ncc(-c4cn[nH]c4)cc23)nc(N)n1 | microsomal CLint [7]: 52 µL/min/mg; Ratio IC50 (Homo sapiens): 460; IC50 [1]: > 30 µM; Ratio [8]: 54.8; IC50 [3]: 6 µM; Papp A→B [9]: 0.89 ×10⁻⁶ cm/s; IC50 [5]: 7 µM; microsomal CLint [10]: > 70 µL/min/mg; IC50 [6]: > 30 µM
21 | 0.17 | CCc1cc(-c2c[nH]c3ncc(-c4ccc(N)nc4)cc23)nc(N)n1 | IC50 [1]: > 10 µM; IC50 [3]: > 10 µM; IC50 [5]: > 10 µM; IC50 [6]: > 30 µM
 | 6.7 | Oc1ccc(-c2n[nH]c3cc(O)ccc23)cc1 | 
 | 60 | Nc1nc2c3ccccc3nc(-c3ccccc3)n2n1 | 
> 30 | 0.45 | CCc1cc(-c2c[nH]c3ncc(-c4ccncc4)cc23)nc(N)n1 | 
